{"source": "patent US20030191144A1", "about": "“Compounds, compositions and methods for modulating beta-amyloid production” (Active Pass Pharmaceuticals, Inc., priority 2001, published 2003)", "key": {"[1]": {"tested_on": "Aβ42 from human neuroblastoma cells (hDAT; SK-N-MC)", "assay": "Aβ42 ELISA, human neuroblastoma cells transiently transfected with APPsw", "format": "cell-based", "conditions": "200 μM, 24 hours, p<0.001, n=11", "description": "Human neuroblastoma cells (hDAT; SK-N-MC stably overexpression human dopamine transporter) were routinely maintained in DMEM supplemented with sodium pyruvate (1 mM) and 10% fetal bovine serum. […] Subsequently, 48 hours post-transfection the cells were rinsed with PBS and treated with vehicle (0.1% DMSO) or 100-200 μM pirinixic acid in serum free/phenol free DMEM for 24 hours. After the pharmacological treatment, the exposure media was collected and supplemented with 10% sample treatment buffer (40 mM sodium phosphate (pH 7.4), 40 mM triethanolamine, 0.1% Triton X-100, 200 mM NaCl, 2 mM EGTA, 0.1% Sodium azide), and assayed for either Aβ40 or AP42 by a calorimetric ELISA as per the manufacturer's protocol (Biosource International Inc, California). The cells were lysed in 0.1% Triton X-100 in PBS supplemented with 5 μM Propridium Iodide (Molecular probes, Eugene, Oreg.) and incubated at 37° C. for 30 minutes prior to measuring fluorescence. Secreted Aβ40 and Aβ42 levels were standardized against propridium iodide fluorescence as a measure of total cell number. Data are expressed as a percent of control and represent the mean±SD with n=11 and statistical significance determined by ANOVA with a Tukey's post hoc test at ***p<0.001."}, "[2]": {"tested_on": "Aβ40 production and/or release from SM-4 cells", "assay": "Aβ40 ELISA of culture media from SM-4 cells", "format": "cell-based", "conditions": "10-500 μM, 16 hrs", "description": "Cell Lines and Pharmacological Treatments. 293 EBNA cells (InVitrogen, Carlsbad, Calif.) stably transfected with Swedish mutant β-Amyloid Precursor Protein -695 (SM4 cells) were routinely maintained in DMEM supplemented with sodium pyruvate (1 mM) and 10% fetal bovine serum. Cells were seeded into poly-D-Lysine (SIGMA) coated 6-well plates at a density of 5-7×10^5 cells per well. Subsequently, the cells were rinsed in 1 ml of PBS and treated with 10-500 μM of pirinixic acid in serum-free/phenol red-free DMEM for 16 hours. Aβ Detection and Standardization. After the pharmacological treatment, the exposure media was collected and supplemented with 10% sample treatment buffer (40 mM sodium phosphate (pH 7.4), 40 mM triethanolamine, 0.1% Triton X-100, 200 mM NaCl, 2 mM EGTA, 0.1% Sodium azide), and assayed for either Aβ40 or Aβ42 by a calorimetric ELISA as per the manufacturer's protocol (Biosource International Inc, California). The cells were lysed in 0.1% Triton X-100 in PBS supplemented with 5 μM propridium iodide (Molecular Probes, Eugene, Oreg.) and incubated at 37° C. for 30 minutes prior to measuring fluorescence. Aβ40 and Aβ42 were standardized against propridium iodide fluorescence as a measure of total cell number. 293 EBNA cells (InVitrogen, Carlsbad, Calif.) stably transfected with Swedish mutant β-Amyloid Precursor Protein -695 (SM4 cells) were routinely maintained in DMEM supplemented with sodium pyruvate (1 mM) and 10% fetal bovine serum. […] The cells were lysed in 0.1% Triton X-100 in PBS supplemented with 5 μM propridium iodide (Molecular Probes, Eugene, Oreg.) and incubated at 37° C. for 30 minutes prior to measuring fluorescence. Aβ40 and Aβ42 were standardized against propridium iodide fluorescence as a measure of total cell number. […] The cells were lysed in 0.1% Triton X-100 in PBS supplemented with 5 μM propridium iodide (Molecular Probes, Eugene, Oreg.) and incubated at 37° C. for 30 minutes prior to measuring fluorescence. Aβ40 and Aβ42 were standardized against propridium iodide fluorescence as a measure of total cell number."}}}
{"smiles": "Cc1cccc(Nc2cc(Cl)nc(SCC(=O)O)n2)c1C", "note": "[pirinixic acid]", "values": [{"measurement": "decrease in Aβ42", "setting": "[1]", "value": 40, "unit": "%"}, {"measurement": "change in Aβ40 production and/or release", "setting": "[2]", "value": "no significant change"}]}
